Source: US7459532B2, “Variants of the TRP channel family member, LTRPC3G” (Bristol-Myers Squibb Company, priority 2003, dated 2008)
Entries after “also recorded” stand apart in the source; their conditions may differ.

What was measured:
[1] = biological target: T1, LTRPC3 (Homo sapiens, UniProt Q9HCF6, R1695Q); test: FLIPR Fluo-4 Ca^2+ entry in LTRPC3-transfected HEK 293 cells; assay type: cell-based; details: for block of LTRPC3 Ca^2+ conductance/currents (in words): 1 mM Ca^2+ solution, addition of 10 mM Ca^2+; for block of LTRPC3 Ca^2+ currents: pre-treatment with 100 μM, stimulated by adding 10 mM Ca^2+
T1 construct: the complete open reading frame of LTRPC3 with a C-terminal HA tag was transiently transfected into HEK 293 cells; expressed in transfected cells; host or cells: HEK 293 (transient transfection, vector pcDNA3.1/Hygro-LTRPC3-HA)
T1 sequence (Q9HCF6 with tags, fused parts or gaps isoform Q9HCF6-2 R1670Q): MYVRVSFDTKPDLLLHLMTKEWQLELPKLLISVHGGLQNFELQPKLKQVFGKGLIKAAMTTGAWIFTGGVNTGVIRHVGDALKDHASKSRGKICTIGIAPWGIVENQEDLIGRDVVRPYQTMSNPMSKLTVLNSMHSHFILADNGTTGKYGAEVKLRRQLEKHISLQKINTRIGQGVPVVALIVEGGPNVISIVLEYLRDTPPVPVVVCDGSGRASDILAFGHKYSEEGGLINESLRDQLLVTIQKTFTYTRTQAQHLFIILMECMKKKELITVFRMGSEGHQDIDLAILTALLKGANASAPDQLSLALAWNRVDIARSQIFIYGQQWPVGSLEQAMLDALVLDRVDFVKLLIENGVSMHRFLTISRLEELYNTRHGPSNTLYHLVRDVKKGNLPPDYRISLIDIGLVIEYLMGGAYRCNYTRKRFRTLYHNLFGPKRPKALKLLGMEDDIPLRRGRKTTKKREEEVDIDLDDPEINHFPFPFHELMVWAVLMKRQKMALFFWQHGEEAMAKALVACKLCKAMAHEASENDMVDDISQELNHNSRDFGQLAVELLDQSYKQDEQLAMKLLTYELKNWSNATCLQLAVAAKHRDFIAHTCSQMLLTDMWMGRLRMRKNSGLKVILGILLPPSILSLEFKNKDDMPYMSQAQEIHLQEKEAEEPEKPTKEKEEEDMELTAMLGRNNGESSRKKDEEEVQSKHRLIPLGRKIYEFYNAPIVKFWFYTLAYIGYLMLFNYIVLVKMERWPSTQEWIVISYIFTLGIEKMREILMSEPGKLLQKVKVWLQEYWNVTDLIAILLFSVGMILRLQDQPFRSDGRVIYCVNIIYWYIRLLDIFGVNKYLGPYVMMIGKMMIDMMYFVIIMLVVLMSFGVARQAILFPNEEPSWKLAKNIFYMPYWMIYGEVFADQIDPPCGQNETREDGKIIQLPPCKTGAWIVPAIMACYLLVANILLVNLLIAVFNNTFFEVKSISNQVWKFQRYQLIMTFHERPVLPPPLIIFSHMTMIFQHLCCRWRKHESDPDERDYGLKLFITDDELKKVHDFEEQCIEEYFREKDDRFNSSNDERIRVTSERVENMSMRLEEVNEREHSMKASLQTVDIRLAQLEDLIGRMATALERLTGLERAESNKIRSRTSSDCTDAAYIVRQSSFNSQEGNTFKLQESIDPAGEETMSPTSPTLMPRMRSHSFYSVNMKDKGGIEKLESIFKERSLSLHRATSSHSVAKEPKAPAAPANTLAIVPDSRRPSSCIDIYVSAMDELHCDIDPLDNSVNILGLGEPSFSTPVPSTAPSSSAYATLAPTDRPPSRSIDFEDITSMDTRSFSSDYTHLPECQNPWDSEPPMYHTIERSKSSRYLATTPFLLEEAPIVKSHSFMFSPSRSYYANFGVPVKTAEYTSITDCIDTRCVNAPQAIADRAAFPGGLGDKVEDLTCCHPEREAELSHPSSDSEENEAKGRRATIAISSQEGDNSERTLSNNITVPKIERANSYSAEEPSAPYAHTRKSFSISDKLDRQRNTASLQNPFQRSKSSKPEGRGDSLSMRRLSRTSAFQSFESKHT
Procedure: (§1) […] (A), or 50 μM carbachol (B) was first added to LTRPC3 variant expressing HEK 293 cells in the absence of external Ca^2+. After 9 minutes, 2 mM Ca^2+ solution was added to the cell medium at the indicated times. Currents for vector transfected HEK 293 cells, and LTRPC3 variant expressing HEK 293 cells are labeled accordingly. […] Cells loaded with Fluo-4 were incubated in 1 mM Ca^2+ solution and treated with 100 μM of La^3+ (“w/La^3+”), Gd^3+ (“w/Gd^3+”) or without blockers (“w/o blocker”) for 10 min prior to the addition of 10 mM Ca^2+ to the cell medium as indicated. Curves represent averages of three independent experiments, each involving at least 8 wells per condition. Physiometric methods were performed as described in Example 7 herein.
(§2) Panels A, C and E show results obtained for vector-transfected cells, while Panels B, D and F show results obtained for TRPM3-transfected cells. […] Cells loaded with Fluo-4 were incubated in 1 mM Ca^2+ solution and treated with 100 μM of Gd^3+ (red) or without blockers (black) for 10 min prior to the addition of 10 mM Ca^2+ to the bath solution as indicated. […] Cells loaded with Fluo-4 were incubated in a nominally Ca^2+-free media and treated without blockers (black) or with 100 μM of Gd^3+ (red) for 10 min prior to the addition of 2 μM TG (Panels C and D, first arrow) or 50 μM CCh (Panels E and F, first arrow), Ca^2+ entry was stimulated by the bath addition of 10 mM Ca^2+ (second arrow). Representative traces from one of three independent experiments are shown; each trace is the mean of 12 wells per condition. Physiometric methods were performed as described in Example 10 herein.
Moreover, physiometric studies have shown that LTRPC3 is a functional Ca^2+ permeable channel (see FIGS. 18 and 19, and Example 7). LTRPC3g function was assessed using a Fluorometric Imaging Plate Reader (FLIPR™) that measures real-time intracellular fluorescence changes. Cells transiently transfected with vector or LTRPC3-HA were loaded with the cytoplasmic Ca^2+ indicator Fluoro-4 in a 1 mM Ca^2+ solution. […] The non-transfected cells were indistinguishable from the vector-transfected cells (data not shown). Therefore, LTRPC3 is a constitutively active channel capable of mediating Ca^2+ influx.
The lanthanides, gadolinium (Gd^3+) and lanthanum (La^3+), are noneselective Ca^2+-permeable channel blockers, often used as part of the characterization of overexpressed TRP channels. […] In the presence of 1 mM Ca^2+ in which endogenous SOCs is minimally activated (FIG. 18A), pre-treatment with 100 μM of La^3+ and Gd^3+ blocked LTRPC3 Ca^2+ currents, stimulated by adding 10 mM Ca^2+, by 67 and 39%, respectively.
Additional experiments were performed to further confirm the Ca^2+ store-depleted activation of LTRPC3 using Gd^3+. The effects of 100 μM Gd^3+ on Ca^2+ permeability were tested in vector- and LTRPC3-transfected cells. […] In contrast, 100 μM Gd^3+ inhibited Ca^2+ entry, induced by adding 10 mM Ca^2+, by 53% in LTRPC3-transfected cells (see FIG. 22B). Gd^3+ reduced fluorescence units in vector-transfected cells from 1470±140 to −58±8 and in LTRPC3-transfected cells from 6000±322 to 2080±199 (n=12). Fluorescence values were measured 150 seconds after adding 10 mM Ca^2+ and percent blockade was calculated as 1 minus FLTRPC3-FVector in the presence of Gd^3+ divided by FLTRPC3-FVector without blocker. The effects of Gd^3+ on LTRPC3-mediated Ca^2+ entry, induced by 10 mM Ca^2+, in the presence of thapsigargin or carbachol was also examined. Cells were incubated in nominally Ca^2+-free medium for thapsigargin and carbachol experiments. Gd^3+ inhibited Ca^2+ entry by 51% after depletion of intracellular stores with thapsigargin (see FIG. 22B). Gd^3+ reduced peak fluorescence after 10 mM Ca^2+ addition in vector-transfected cells from 26444±2410 to 1316±60 and in LTRPC3-transfected cells from 37676±2425 to 6783±250 (see FIGS. 22C and D, respectively; n=12). […]

[2] = tested on: Human lung fibroblasts; test: human lung fibroblast growth assay with Alamar Blue; assay type: cell-based; details: 3 days in basal medium
Procedure: Human lung fibroblasts are obtained from Clonetics (San Diego, Calif.) and maintained in growth media from Clonetics. Dermal microvascular endothelial cells are obtained from Cell Applications (San Diego, Calif.). For proliferation assays, the human lung fibroblasts and dermal microvascular endothelial cells can be cultured at 5,000 cells/well in a 96-well plate for one day in growth medium. The cells are then incubated for one day in 0.1% BSA basal medium. After replacing the medium with fresh 0.1% BSA medium, the cells are incubated with the test proteins for 3 days. Alamar Blue (Alamar Biosciences, Sacramento, Calif.) is added to each well to a final concentration of 10%. The cells are incubated for 4 hr. Cell viability is measured by reading in a CytoFluor fluorescence reader. For the PGE2 assays, the human lung fibroblasts are cultured at 5,000 cells/well in a 96-well plate for one day. […]

[3] = tested on: nigral dopaminergic neurons; details: gel foam implants in the striatum; cited from earlier work
[4] = tested on: HEK 293 cells; test: Ca^2+ store depletion in LTRPC3-HA- and vector-transfected HEK 293 cells; assay type: cell-based
Procedure: as §1
The store-operated mechanism of LTRPC3-mediated Ca^2+ influx was tested further by passively depleting Ca^2+ stores with thapsigargin (TG), an inhibitor of microsomal Ca^2+ ATPases that pumps ions from the cytosol back into the stores. […] Following store depletion with TG, addition of Ca^2+ to the buffer induced a much larger Ca^2+ entry in LTRPC3 cells compared to the vector control cells.
Receptor-mediated Ca^2+ entry was also more pronounced in LTRPC3-HA-transfected cells. Carbachol (CCh) can activate an endogenous muscarinic receptor and trigger IP3 production, leading to store-depletion in HEK 293 cells. […]

[5] = tested on: female recipients; details: picogram quantities to the female vomeronasal organ; cited from earlier work
[6] = tested on: endogenous Ca^2+ entry pathways present in HEK 293 cells; test: FLIPR Fluo-4 Ca^2+ entry in vector-transfected HEK 293 cells; assay type: cell-based; details: 100 μM
Procedure: as §2
To further address the mechanism of LTRPC3-mediated Ca^2+ entry, similar Ca^2+ addition experiments were performed on transfected cells incubated (˜30 min) in a nominally Ca^2+-free solution. Previous studies have shown that lowering extracellular Ca^2+ concentration below physiological levels can deplete intracellular Ca^2+ stores in many cell types including HEK 293 (EMBO J. 17, 4274-4282, (1998)). Incubating vector-transfected HEK 293 cells in a nominally Ca^2+-free solution gave rise to Ca^2+ entry that was dependent on the concentration of Ca^2+ added to the buffers, indicating Ca^2+ influx was mediated through endogenous SOCs in HEK293 cells (FIG. 18, left panels). In LTRPC3 cells, the Ca^2+ transients triggered by similar Ca^2+ treatment were much larger (FIG. 18, right panels).
Additional experiments were performed to further confirm the Ca^2+ store-depleted activation of LTRPC3 using Gd^3+. The effects of 100 μM Gd^3+ on Ca^2+ permeability were tested in vector- and LTRPC3-transfected cells. […] In contrast, 100 μM Gd^3+ inhibited Ca^2+ entry, induced by adding 10 mM Ca^2+, by 53% in LTRPC3-transfected cells (see FIG. 22B). Gd^3+ reduced fluorescence units in vector-transfected cells from 1470±140 to −58±8 and in LTRPC3-transfected cells from 6000±322 to 2080±199 (n=12). Fluorescence values were measured 150 seconds after adding 10 mM Ca^2+ and percent blockade was calculated as 1 minus FLTRPC3-FVector in the presence of Gd^3+ divided by FLTRPC3-FVector without blocker. […] Gd^3+ reduced peak fluorescence after 10 mM Ca^2+ addition in vector-transfected cells from 26444±2410 to 1316±60 and in LTRPC3-transfected cells from 37676±2425 to 6783±250 (see FIGS. 22C and D, respectively; n=12). […] Gd^3+ reduced peak Ca^2+ fluorescence in vector-transfected cells from 9327±466 to 453±15 and in LTRPC3-transfected cells from 14747±988 to 1975±79 (see FIGS. 22E and F, respectively; n=12).

[7] = 100 μM, nominally Ca^2+-free medium, 10 mM Ca^2+ addition

## [La+3] [La^3+, lanthanum (La^3+)]
[1]; 100 μM for 10 min
  block of LTRPC3 Ca^2+ conductance/currents (in words): inhibited; also recorded: more potent
[1]; 1 mM Ca^2+
  block of LTRPC3 Ca^2+ currents: 67%

## FGF-2: FGF-2 (basic FGF), growth factor used as comparator
[2]
  concentration at which stimulation of fibroblast growth should be shown: 10 to 2500 ng/mL
[3]
  protection of nigral dopaminergic neurons from the toxicity associated with MPTP exposure: near complete protection

## C/C=C(/C)C(=O)O[C@H]1C(C)=C2[C@H]([C@@H]1OC(=O)CCCCCCC)[C@@](C)(OC(C)=O)C[C@H](OC(=O)CCC)[C@@]1(O)[C@H]2OC(=O)[C@@]1(C)O [thapsigargin]
[4]; 2 μM, LTRPC3-HA- and vector-transfected cells
  depletion of Ca^2+ stores (in words): equivalently depleted Ca^2+ stores

## C[N+](C)(C)CCOC(N)=O [CCh, Carbachol]
[4]; 50 μM, LTRPC3- and vector-transfected cells
  intracellular Ca^2+ response (in words): transient and rapid intracellular Ca^2+ increase

## C[C@@]12C=CC[C@H]1[C@@H]1CCC3=CC(=O)CC[C@]3(C)[C@H]1CC2 [androstadienone]
[5]
  nervousness, tension and other negative feelings: significant reduction

## [Gd+3] [Gd^3+, gadolinium (Gd^3+)]
[1]; 100 μM for 10 min
  block of LTRPC3 Ca^2+ conductance/currents (in words): partially inhibited
[1]; 100 μM for 10 min, nominally Ca^2+-free media, 2 μM TG or 50 μM CCh, 10 mM Ca^2+
  effect on Tg and CCh induced LTRPC3 variant-mediated Ca^2+ entry (in words): can be inhibited
[1]; 100 μM, 1 mM Ca^2+, 150 seconds after adding 10 mM Ca^2+, n=12
  fluorescence in the presence of blocker, LTRPC3-transfected cells: 2080±199 fluorescence units
[1]; 100 μM, cells in 1 mM Ca^2+, induced by adding 10 mM Ca^2+, 150 seconds after addition
  inhibition of Ca^2+ entry (percent blockade): 53%
[1]; [7]
  inhibition of Ca^2+ entry after depletion of intracellular stores with carbachol: 72%
  inhibition of Ca^2+ entry after depletion of intracellular stores with thapsigargin: 51%
[1]; 100 μM, nominally Ca^2+-free medium, 10 mM Ca^2+ addition, n=12
  peak Ca^2+ fluorescence in the presence of blocker after carbachol, LTRPC3-transfected cells: 1975±79
[1]; 100 μM, nominally Ca^2+-free medium, after 10 mM Ca^2+ addition, n=12
  peak fluorescence in the presence of blocker after thapsigargin, LTRPC3-transfected cells: 6783±250
[1]; 1 mM Ca^2+
  block of LTRPC3 Ca^2+ currents: 39%
[6]; 1 mM Ca^2+, 150 seconds after adding 10 mM Ca^2+, n=12
  fluorescence in the presence of blocker, vector-transfected cells: −58±8 fluorescence units
[6]; 1 mM Ca^2+, addition of 10 mM Ca^2+
  effect on minimal Ca^2+ influx in vector-transfected cells (in words): strongly inhibited
[6]; nominally Ca^2+-free medium, 10 mM Ca^2+ addition, n=12
  peak Ca^2+ fluorescence in the presence of blocker after carbachol, vector-transfected cells: 453±15
[6]; nominally Ca^2+-free medium, after 10 mM Ca^2+ addition, n=12
  peak fluorescence in the presence of blocker after thapsigargin, vector-transfected cells: 1316±60
